Source: PMC4503722, “Novel Phenotypic Outcomes Identified for a Public Collection of Approved Drugs from a Publicly Accessible Panel of Assays” (PLoS ONE, 2015)
Like-named read-outs stand apart in the source and are kept apart here.

Experiments:
[1] = tested on: ECFC/ADSC co-culture cell nuclei number; details: for IC50: read-out: VEGF_ADSC\ECFC Angio Hoechst NucArea summarized IC50
hGSK3b = target: T1, hGSK3b (Homo sapiens, UniProt P49841); test: Cerep LANCE kinase assay hGSK3b (S1 assay 34); format: biochemical
T1 construct: purchased Cerep (LANCE kinase assay platform, contract assay)
T1 sequence (P49841 whole entry): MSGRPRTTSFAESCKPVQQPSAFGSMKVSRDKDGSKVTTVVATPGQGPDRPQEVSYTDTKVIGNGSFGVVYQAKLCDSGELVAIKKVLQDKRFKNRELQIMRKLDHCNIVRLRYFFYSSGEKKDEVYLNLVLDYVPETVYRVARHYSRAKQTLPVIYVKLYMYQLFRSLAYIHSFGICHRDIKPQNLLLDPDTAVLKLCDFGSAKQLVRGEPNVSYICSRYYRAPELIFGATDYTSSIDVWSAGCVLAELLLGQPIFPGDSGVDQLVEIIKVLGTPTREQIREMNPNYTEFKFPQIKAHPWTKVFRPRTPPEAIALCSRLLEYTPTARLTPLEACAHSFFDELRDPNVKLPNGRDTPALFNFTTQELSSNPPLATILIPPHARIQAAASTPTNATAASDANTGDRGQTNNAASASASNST

hFLT3 = target: T2, hFLT3 (Homo sapiens, UniProt P36888); test: Cerep LANCE kinase assay hFLT3 (S1 assay 35); format: biochemical
T2 construct: purchased Cerep (LANCE kinase assay platform, contract assay)
T2 sequence (P36888 27-993): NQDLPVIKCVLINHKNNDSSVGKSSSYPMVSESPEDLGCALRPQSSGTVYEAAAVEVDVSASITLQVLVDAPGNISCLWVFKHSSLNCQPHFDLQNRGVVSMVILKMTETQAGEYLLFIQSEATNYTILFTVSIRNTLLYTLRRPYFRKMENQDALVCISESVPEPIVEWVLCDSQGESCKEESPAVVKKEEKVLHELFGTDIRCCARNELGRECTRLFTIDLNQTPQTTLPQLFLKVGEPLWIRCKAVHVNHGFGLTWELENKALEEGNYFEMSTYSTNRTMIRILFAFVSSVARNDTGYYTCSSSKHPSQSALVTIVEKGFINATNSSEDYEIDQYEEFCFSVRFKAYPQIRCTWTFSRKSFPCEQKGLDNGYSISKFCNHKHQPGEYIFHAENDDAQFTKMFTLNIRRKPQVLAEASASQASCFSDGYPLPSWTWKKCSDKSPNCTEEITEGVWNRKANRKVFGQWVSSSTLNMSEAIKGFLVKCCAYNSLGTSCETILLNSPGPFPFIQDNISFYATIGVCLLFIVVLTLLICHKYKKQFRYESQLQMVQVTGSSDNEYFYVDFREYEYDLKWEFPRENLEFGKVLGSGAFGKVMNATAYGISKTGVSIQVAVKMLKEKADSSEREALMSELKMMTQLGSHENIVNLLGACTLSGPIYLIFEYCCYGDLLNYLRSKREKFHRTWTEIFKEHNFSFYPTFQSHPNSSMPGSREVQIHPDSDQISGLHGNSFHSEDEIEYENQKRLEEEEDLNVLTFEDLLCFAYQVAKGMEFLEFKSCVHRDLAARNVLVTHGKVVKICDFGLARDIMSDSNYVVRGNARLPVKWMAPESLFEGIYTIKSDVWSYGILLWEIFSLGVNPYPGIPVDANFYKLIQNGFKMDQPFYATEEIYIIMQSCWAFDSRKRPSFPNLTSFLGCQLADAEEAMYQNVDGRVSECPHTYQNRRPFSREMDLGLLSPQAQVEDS

hKDR = target: T3, hKDR (Homo sapiens, UniProt P35968); test: Cerep LANCE kinase assay hKDR (S1 assay 32); format: biochemical
T3 construct: purchased Cerep (LANCE kinase assay platform, contract assay)
T3 sequence (P35968 20-1356): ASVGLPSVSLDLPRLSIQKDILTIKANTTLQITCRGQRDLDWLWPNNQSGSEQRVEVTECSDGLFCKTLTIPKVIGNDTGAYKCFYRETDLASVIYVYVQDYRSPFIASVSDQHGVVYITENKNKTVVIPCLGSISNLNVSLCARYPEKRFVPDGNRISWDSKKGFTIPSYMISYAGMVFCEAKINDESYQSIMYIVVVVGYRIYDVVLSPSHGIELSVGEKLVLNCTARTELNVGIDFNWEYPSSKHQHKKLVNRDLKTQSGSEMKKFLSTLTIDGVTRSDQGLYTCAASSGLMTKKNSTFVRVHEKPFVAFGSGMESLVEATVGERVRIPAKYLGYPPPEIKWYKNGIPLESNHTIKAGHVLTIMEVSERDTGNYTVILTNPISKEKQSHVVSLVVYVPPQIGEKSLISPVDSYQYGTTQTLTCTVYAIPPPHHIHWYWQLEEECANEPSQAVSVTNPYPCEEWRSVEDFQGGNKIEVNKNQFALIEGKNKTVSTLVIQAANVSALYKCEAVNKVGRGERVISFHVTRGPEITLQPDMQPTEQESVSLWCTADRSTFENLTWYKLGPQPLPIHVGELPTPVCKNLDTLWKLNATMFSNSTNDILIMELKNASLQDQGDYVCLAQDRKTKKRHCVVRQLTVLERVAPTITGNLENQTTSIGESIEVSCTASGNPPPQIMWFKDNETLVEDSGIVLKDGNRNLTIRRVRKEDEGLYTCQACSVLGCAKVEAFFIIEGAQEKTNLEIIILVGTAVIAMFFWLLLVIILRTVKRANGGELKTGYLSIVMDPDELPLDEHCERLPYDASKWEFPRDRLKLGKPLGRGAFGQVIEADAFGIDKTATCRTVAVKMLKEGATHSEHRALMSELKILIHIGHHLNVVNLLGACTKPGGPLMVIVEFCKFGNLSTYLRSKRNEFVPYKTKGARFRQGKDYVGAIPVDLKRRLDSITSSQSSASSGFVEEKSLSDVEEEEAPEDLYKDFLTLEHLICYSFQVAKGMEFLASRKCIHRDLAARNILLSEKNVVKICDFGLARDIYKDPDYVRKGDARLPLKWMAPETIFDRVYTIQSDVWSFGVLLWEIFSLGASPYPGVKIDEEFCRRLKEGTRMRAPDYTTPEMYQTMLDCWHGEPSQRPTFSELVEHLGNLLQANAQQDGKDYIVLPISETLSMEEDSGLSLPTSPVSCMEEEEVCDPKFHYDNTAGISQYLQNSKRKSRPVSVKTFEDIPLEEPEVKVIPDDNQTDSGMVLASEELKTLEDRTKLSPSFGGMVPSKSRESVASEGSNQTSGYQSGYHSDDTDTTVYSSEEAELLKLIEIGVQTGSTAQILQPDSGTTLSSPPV

hJAK2 = target: T4, hJAK2 (Homo sapiens, UniProt O60674); test: Cerep LANCE kinase assay hJAK2 (S1 assay 33); format: biochemical
T4 construct: purchased Cerep (LANCE kinase assay platform, contract assay)
T4 sequence (O60674 whole entry): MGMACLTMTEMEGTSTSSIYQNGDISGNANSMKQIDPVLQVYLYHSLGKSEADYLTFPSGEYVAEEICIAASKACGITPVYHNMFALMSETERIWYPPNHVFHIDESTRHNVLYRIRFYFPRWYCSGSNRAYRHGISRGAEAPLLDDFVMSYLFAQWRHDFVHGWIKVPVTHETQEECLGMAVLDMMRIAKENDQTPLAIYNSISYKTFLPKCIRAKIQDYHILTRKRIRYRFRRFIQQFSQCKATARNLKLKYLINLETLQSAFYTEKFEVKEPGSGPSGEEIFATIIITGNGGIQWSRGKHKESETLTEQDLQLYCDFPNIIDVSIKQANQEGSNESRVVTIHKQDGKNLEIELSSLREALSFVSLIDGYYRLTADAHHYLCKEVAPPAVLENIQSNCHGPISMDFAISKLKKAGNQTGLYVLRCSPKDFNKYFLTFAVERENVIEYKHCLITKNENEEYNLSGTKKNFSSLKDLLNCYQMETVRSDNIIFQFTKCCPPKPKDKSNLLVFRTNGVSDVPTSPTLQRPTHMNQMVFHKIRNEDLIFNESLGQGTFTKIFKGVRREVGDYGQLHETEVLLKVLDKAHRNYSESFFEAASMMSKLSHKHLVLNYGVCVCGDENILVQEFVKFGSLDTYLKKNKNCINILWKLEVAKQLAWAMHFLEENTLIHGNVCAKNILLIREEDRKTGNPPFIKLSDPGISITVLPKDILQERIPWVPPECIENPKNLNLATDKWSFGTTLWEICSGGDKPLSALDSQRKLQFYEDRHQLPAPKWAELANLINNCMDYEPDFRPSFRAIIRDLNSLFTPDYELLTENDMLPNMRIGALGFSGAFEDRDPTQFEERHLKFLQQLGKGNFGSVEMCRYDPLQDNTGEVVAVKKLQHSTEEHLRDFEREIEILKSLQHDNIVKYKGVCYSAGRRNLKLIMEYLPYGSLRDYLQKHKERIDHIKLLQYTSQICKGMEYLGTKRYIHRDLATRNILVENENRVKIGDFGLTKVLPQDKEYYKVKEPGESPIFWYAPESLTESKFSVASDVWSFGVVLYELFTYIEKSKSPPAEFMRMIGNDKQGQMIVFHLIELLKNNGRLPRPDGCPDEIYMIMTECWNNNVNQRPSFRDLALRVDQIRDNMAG

HeLa cells = test: cells; format: cell-based;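 for Hela CellCycMod PI 4N summarized IC50: value tracks stimulation of 4N DNA content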
[2] = tested on: endothelial tube formation in co-cultures of ECFCs and ADSCs treated with VEGF; test: cells; format: cell-based, human; details: for IC50: read-out: VEGF_ADSC\ECFC Angio CD31 TubeArea summarized IC50
hp70S6K1 (RPS6KB1) = target: T5, hp70S6K1 (RPS6KB1) (Homo sapiens, UniProt P23443); test: Cerep LANCE kinase assay hp70S6K1 (S1 assay 31); format: biochemical
T5 construct: purchased Cerep (LANCE kinase assay platform, contract assay)
T5 sequence (P23443 whole entry): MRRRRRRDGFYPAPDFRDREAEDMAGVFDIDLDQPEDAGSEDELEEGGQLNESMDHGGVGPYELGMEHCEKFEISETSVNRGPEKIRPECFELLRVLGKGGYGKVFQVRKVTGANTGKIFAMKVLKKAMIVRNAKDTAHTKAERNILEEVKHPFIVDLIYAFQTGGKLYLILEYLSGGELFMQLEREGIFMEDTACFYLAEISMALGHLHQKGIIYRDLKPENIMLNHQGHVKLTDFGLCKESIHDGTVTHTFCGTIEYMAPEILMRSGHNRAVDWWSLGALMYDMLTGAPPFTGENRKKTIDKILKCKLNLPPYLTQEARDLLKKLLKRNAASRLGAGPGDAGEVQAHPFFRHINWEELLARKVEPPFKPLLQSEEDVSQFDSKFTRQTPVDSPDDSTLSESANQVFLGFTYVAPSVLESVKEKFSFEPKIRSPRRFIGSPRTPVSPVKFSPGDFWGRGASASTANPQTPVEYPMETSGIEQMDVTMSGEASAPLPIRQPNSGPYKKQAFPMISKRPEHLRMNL

Colo320 = test: cells; format: cell-based; details: assay number 27; for IC50: basal, read-out: Basal_Viability ATP Colo 320 summarized IC50
HT-29 = test: cells; format: cell-based; details: assay number 28; for IC50: basal, read-out: Basal_Viability ATP HT-29 summarized IC50
RKO = test: cells; format: cell-based; details: assay number 29; for IC50: basal, read-out: Basal_Viability ATP RKO summarized IC50
HCT116 = test: cells; format: cell-based; details: assay number 25, basal; for IC50: read-out: Basal_Viability ATP HCT116 summarized IC50
SNU-C1 = test: cells; format: cell-based; details: assay number 30; basal; read-out: Basal_Viability ATP SNU-C1 summarized IC50
DLD-1 = test: cells; format: cell-based; details: assay number 23; for IC50: basal, read-out: Basal_Viability ATP DLD-1 summarized IC50
SW480 = test: cells; format: cell-based; details: assay number 24; for IC50: basal, read-out: Basal_Viability ATP SW480 summarized IC50
[3] = tested on: HCT116 cells treated with a GSK3β inhibitor; test: cells; format: cell-based; details: assay number 26; GSK3b inhibitor pretreated; read-out: GSK3b inh pretreated_Viability ATP HCT116 summarized IC50
[4] = assay number 34, read-out: hGSK3b LANCE summarized IC50
[5] = assay number 35, read-out: hFLT3 LANCE summarized IC50
[6] = assay number 32, read-out: hKDR LANCE summarized IC50
[7] = assay number 33, read-out: hJAK2 LANCE summarized IC50
[8] = assay number 14, 2N, read-out: Hela CellCycMod PI 2N summarized IC50
[9] = assay number 16, 4N, read-out: Hela CellCycMod PI 4N summarized IC50
[10] = assay number 17, MI, read-out: Hela CellCycMod PI MI summarized IC50
[11] = assay number 18, cell number, read-out: Hela CellCycMod PI Cell Number summarized IC50
[12] = assay number 31, read-out: hp70S6K1 LANCE summarized IC50
[13] = assay number 15, S phase, read-out: Hela CellCycMod PI S Phase summarized IC50

| SMILES | VEGF_ADSC\ECFC Angio Hoechst NucArea IC50/EC50 [1] | hGSK3b LANCE IC50/EC50 (hGSK3b; assay number 34) | hFLT3 LANCE IC50/EC50 (hFLT3; assay number 35) | hKDR LANCE IC50/EC50 (hKDR; assay number 32) | hJAK2 LANCE IC50/EC50 (hJAK2; assay number 33) | Hela CellCycMod PI 2N IC50/EC50 (HeLa cells; assay number 14, 2N) | Hela CellCycMod PI 4N IC50/EC50 (HeLa cells; assay number 16, 4N) | Hela CellCycMod PI MI IC50/EC50 (HeLa cells; assay number 17, MI) | Hela CellCycMod PI Cell Number IC50/EC50 (HeLa cells; assay number 18, cell number) | VEGF_ADSC\ECFC Angio CD31 TubeArea IC50/EC50 [2] | hp70S6K1 LANCE IC50/EC50 (hp70S6K1 (RPS6KB1); assay number 31) | IC50 [1] | IC50 (hGSK3b; [4]) | IC50 (hFLT3; [5]) | IC50 (hJAK2; [7]) | IC50 (HeLa cells; [8]) | IC50 (HeLa cells; [9]) | IC50 (HeLa cells; [10]) | IC50 (HeLa cells; [11]) | IC50 (hp70S6K1 (RPS6KB1); [12]) | other results |
| --- | --- | --- | --- | --- | --- | --- | --- | --- | --- | --- | --- | --- | --- | --- | --- | --- | --- | --- | --- | --- | --- |
| COc1cc(-c2ccc(=O)[nH]n2)ccc1OC(F)F [NCGC00016106-13] | > 10 µM | > 20 µM | > 20 µM | > 20 µM | > 20 µM | > 10 µM | > 10 µM | > 10 µM | 0.0092 µM | 1.2205 µM | > 20 µM |  |  |  |  |  |  |  |  |  | Hela CellCycMod PI S Phase IC50/EC50 (HeLa cells; assay number 15, S phase): > 10 µM |
| Oc1c(I)cc(I)c2cccnc12 [NCGC00018098-07] |  |  |  |  |  |  |  |  |  |  |  | > 10 µM | > 20 µM | > 20 µM | > 20 µM | > 10 µM | > 10 µM | > 10 µM | > 10 µM | > 20 µM | IC50 (Colo320): 0.0213 µM; IC50 (HT-29): 0.705 µM; IC50 (hKDR; [6]): > 20 µM; IC50 (RKO): 0.0227 µM; IC50 (HCT116): 0.041 µM; IC50 (SNU-C1): 0.0387 µM; IC50 (DLD-1): 0.0178 µM; IC50 (SW480): 0.0036 µM; IC50 [2]: 2.39 µM |
| Oc1c(Cl)cc(Cl)cc1Sc1cc(Cl)cc(Cl)c1O [NCGC00018163-10] |  |  |  |  |  |  |  |  |  |  |  | > 10 µM | 6.57 µM | > 20 µM | > 20 µM | > 10 µM | > 10 µM | > 10 µM | > 10 µM | > 20 µM | IC50 (Colo320): 0.015 µM; IC50 (HT-29): 0.996 µM; IC50 [3]: 0.001 µM; IC50 (RKO): 0.001 µM; IC50 (HCT116): 0.001 µM; IC50 (SNU-C1): 0.00867 µM; IC50 (DLD-1): 0.001 µM; IC50 (HeLa cells; [13]): > 10 µM; IC50 (SW480): 0.001 µM; IC50 [2]: 1.79 µM |
| COc1cc([C@@H]2c3cc4c(cc3[C@H](O)[C@H]3COC(=O)[C@H]23)OCO4)cc(OC)c1OC [NCGC00022001-13] |  |  |  |  |  |  |  |  |  |  |  | > 10 µM | > 20 µM | > 20 µM | > 20 µM | 0.0089 µM | 0.0077 µM | 0.0112 µM | 0.0048 µM | > 20 µM | IC50 (hKDR; [6]): > 20 µM; IC50 (HeLa cells; [13]): > 10 µM; IC50 [2]: 0.0081 µM |
| CCCCCCCCCCCCCCCC[n+]1ccccc1 [NCGC00091023-06] |  |  |  |  |  |  |  |  |  |  |  | 3.01 µM | > 20 µM | > 20 µM | > 20 µM | 1.25 µM | > 10 µM | 0.515 µM | 0.405 µM | > 20 µM | IC50 (Colo320): 1.64 µM; IC50 (HT-29): 2.29 µM; IC50 [3]: 2.29 µM; IC50 (RKO): 1.27 µM; IC50 (HCT116): 1.19 µM; IC50 (SNU-C1): 0.934 µM; IC50 (DLD-1): 1.93 µM; IC50 (HeLa cells; [13]): > 10 µM; IC50 (SW480): 1.61 µM |
| C[C@@H]1C[C@@H]([C@H](O)CC2CC(=O)NC(=O)C2)C(=O)[C@@H](C)C1 [NCGC00169964-05] | > 10 µM | > 20 µM | > 20 µM | > 20 µM | > 20 µM | > 10 µM | > 10 µM | > 10 µM | 0.5421 µM | 1.1486 µM | > 20 µM |  |  |  |  |  |  |  |  |  |  |
| CC(C)(C)C1CCC(CC2=C(O)c3ccccc3C(=O)C2=O)CC1 (stereo not drawn) [NCGC00253624-01] | > 10 µM | > 20 µM | > 20 µM | > 20 µM | > 20 µM | > 10 µM | > 10 µM | > 10 µM | > 10 µM | 1.9625 µM | > 20 µM |  |  |  |  |  |  |  |  |  | Basal_Viability ATP Colo 320 IC50/EC50 (Colo320): 0.2548 µM; Basal_Viability ATP HT-29 IC50/EC50 (HT-29): 3.3906 µM; Basal_Viability ATP RKO IC50/EC50 (RKO): 0.1329 µM; Basal_Viability ATP HCT116 IC50/EC50 (HCT116): 0.2268 µM; Basal_Viability ATP DLD-1 IC50/EC50 (DLD-1): 0.2185 µM; Hela CellCycMod PI S Phase IC50/EC50 (HeLa cells; assay number 15, S phase): > 10 µM; Basal_Viability ATP SW480 IC50/EC50 (SW480): 0.2047 µM |
| CCC(C)n1ncn(-c2ccc(N3CCN(c4ccc(OC[C@H]5CO[C@](Cn6cncn6)(c6ccc(Cl)cc6Cl)O5)cc4)CC3)cc2)c1=O (stereo partly drawn) [NCGC00274068-01] | > 10 µM | > 20 µM | > 20 µM | > 20 µM | > 20 µM | > 10 µM | > 10 µM | > 10 µM | > 10 µM | 1.5488 µM | > 20 µM |  |  |  |  |  |  |  |  |  |  |
| COc1cc2c(c(OC)c1OC)-c1ccc(OC)c(=O)cc1[C@@H](NC(C)=O)CC2 [colchicine] |  |  |  |  |  |  |  |  |  |  |  |  |  |  |  |  |  |  |  |  | IC50 (hGSK3b): > 20 µM; IC50 (hFLT3): > 20 µM; IC50 (hKDR): > 20 µM; IC50 (hJAK2): > 20 µM; IC50 (hp70S6K1 (RPS6KB1)): > 20 µM |
| O=C(CCCCCCC(=O)Nc1ccccc1)NO [vorinostat] |  |  |  |  |  |  |  |  |  |  |  |  |  |  |  |  |  |  |  |  | IC50 (hGSK3b; kinase assay, read-out: GSK3b): > 20 µM; IC50 (hFLT3; kinase assay, read-out: FLT3): > 20 µM; IC50 (hKDR): > 20 µM; IC50 (hJAK2; kinase assay, read-out: JAK2): > 20 µM; IC50 (hp70S6K1 (RPS6KB1); kinase assay, read-out: p70S6K1): > 20 µM |
